{
  "source": "patent US12516064B2",
  "about": "“Tetrahydropyridopyrimidines and related analogs for inhibiting YAP/TAZ-TEAD” (THE KATHOLIEKE UNIVERSITEIT LEUVEN, priority 2022, dated 2026)",
  "data": [
    {"tested_on": "YAP/TAZ-TEAD transcription", "assay": "Reporter gene assay for measuring the inhibition of YAP/TAZ-TEAD transcription", "assay_type": "cell-based", "conditions": "Homo sapiens, HEK-293T; Hek293T cells transiently transfected with TEAD-responsive element luciferase reporter; 24 hours incubation", "method": "Hek293T cells are cultured in DMEM supplemented with 10% fetal bovine serum, Sodium pyruvate, Sodium bicarbonate, L-glutamine. The cells are harvested and transiently transfected with TEAD-responsive element luciferase reporter. Transfected cells are plated in 384-wells plate containing pre-diluted compounds. After 24 hours incubation at 37° C./5% CO2, assay plates were cooled down to RT and levelled to an equal volume per well, prior to the addition of 25 uL luciferase substrate SteadyLite (Perkin Elmer)/well. The plate was shaken for 10 min at 600 rpm, centrifuged for 1 min at 500 rpm and measured with an Envision reader (PerkinElmer). The amount of relative light units produced by the TEAD reporter is used to calculated percent of inhibition.\nThe percent of reporter inhibition was calculated in the presence of a positive control inhibitor (100% inhibition) versus a condition with the presence of the vehicle basal activity of the reporter (0% inhibition). The ability of a test compound to inhibit this activity was determined as: Percentage inhibition=[1−((RLU determined in the presence of vehicle−RLU determined for sample with test compound present) divided by (RLU determined in the presence of vehicle−RLU determined for sample with positive control inhibitor))]*100 The activities of example compounds tested are depicted in Table 8. The activity ranges A, B and C refer to IC50 values in the reporter gene assay as follows: “A”: EC50<1 μM; “B”: 1 μM≤EC50≤3.0 μM and “C”: EC50>3.0 μM, NT=not tested.", "units": {"EC50": "nM"}, "values": [
      {"smiles": "C=CC(=O)N1CCc2c(nc(Cc3ccc(F)cc3)nc2-c2ccn(C)n2)C1", "note": "[Cpd. No. 41, 1-(2-(4-fluorobenzyl)-4-(1-methyl-1H-pyrazol-3-yl)-5,8-dihydropyrido[3,4-d]pyrimidin-7(6H)-yl)prop-2-en-1-one]", "EC50": "< 1000"},
      {"smiles": "C=CC(=O)N1CCc2c(nc(-c3ccccc3)nc2-c2ccn(CC)n2)C1", "note": "[Cpd. No. 59, 1-(4-(1-ethyl-1H-pyrazol-3-yl)-2-phenyl-5,8-dihydropyrido[3,4-d]pyrimidin-7(6H)-yl)prop-2-en-1-one]", "EC50": "< 1000"},
      {"smiles": "CS(=O)(=O)N1CCc2c(nc(Cc3ccccc3)nc2-c2ccn(Cc3cccnc3)n2)C1", "note": "[Cpd. No. 37, 2-benzyl-7-(methylsulfonyl)-4-(1-(pyridin-3-ylmethyl)-1H-pyrazol-3-yl)-5,6,7,8-tetrahydropyrido[3,4-d]pyrimidine]", "EC50": "> 3000"},
      {"smiles": "C=CC(=O)N1CCc2c(nc(-c3ccccc3)nc2-c2cccnc2)C1", "note": "[Cpd. No. 63, 1-(2-phenyl-4-(pyridin-3-yl)-5,8-dihydropyrido[3,4-d]pyrimidin-7(6H)-yl)prop-2-en-1-one]", "EC50": "< 1000"},
      {"smiles": "C=CC(=O)NC1CCc2c(nc(-c3ccccc3)nc2-c2ccn(C)n2)C1", "note": "(centres unmarked) [Cpd. No. 6, N-(4-(1-methyl-1H-pyrazol-3-yl)-2-phenyl-5,6,7,8-tetrahydroquinazolin-7-yl)acrylamide]", "EC50": "> 3000"},
      {"smiles": "CS(=O)(=O)N1Cc2nc(-c3ccccc3)nc(-c3ccn(Cc4cccnc4)n3)c2C1", "note": "[Cpd. No. 25, 6-(methylsulfonyl)-2-phenyl-4-(1-(pyridin-3-ylmethyl)-1H-pyrazol-3-yl)-6,7-dihydro-5H-pyrrolo[3,4-d]pyrimidine]", "EC50": "1000 to 3000"},
      {"smiles": "C=CC(=O)N1CCc2c(-c3ccn(C)n3)nc(-c3ccc(C(F)(F)F)cc3)nc2C1C", "note": "(centres unmarked) [Cpd. No. 76, 1-(8-methyl-4-(1-methyl-1H-pyrazol-3-yl)-2-(4-(trifluoromethyl)phenyl)-5,8-dihydropyrido[3,4-d]pyrimidin-7(6H)-yl)prop-2-en-1-one]", "EC50": "< 1000"},
      {"smiles": "CCC(=O)N1CCc2c(nc(Cc3cccc(F)c3)nc2-c2ccn(C)n2)C1", "note": "[Cpd. No. 44, 1-(2-(3-fluorobenzyl)-4-(1-methyl-1H-pyrazol-3-yl)-5,8-dihydropyrido[3,4-d]pyrimidin-7(6H)-yl)propan-1-one]", "EC50": "> 3000"},
      {"smiles": "C=CC(=O)N1Cc2nc(-c3ccccc3)nc(-c3ccn(C)n3)c2C1", "note": "[Cpd. No. 14, 1-(4-(1-methyl-1H-pyrazol-3-yl)-2-phenyl-5,7-dihydro-6H-pyrrolo[3,4-d]pyrimidin-6-yl)prop-2-en-1-one]", "EC50": "< 1000"},
      {"smiles": "C=CC(=O)N1CCc2c(nc(-c3ccc(C(F)(F)F)cc3)nc2-c2ccn(Cc3cccnc3)n2)C1", "note": "[Cpd. No. 72, 1-(4-(1-(pyridin-3-ylmethyl)-1H-pyrazol-3-yl)-2-(4-(trifluoromethyl)phenyl)-5,8-dihydropyrido[3,4-d]pyrimidin-7(6H)-yl)prop-2-en-1-one]", "EC50": "< 1000"},
      {"smiles": "Cn1ccc(-c2nc(-c3ccc(C(F)(F)F)cc3)nc3c2CCN(C(=O)CC#N)C3)n1", "note": "[Cpd. No. 75, 3-(4-(1-methyl-1H-pyrazol-3-yl)-2-(4-(trifluoromethyl)phenyl)-5,8-dihydropyrido[3,4-d]pyrimidin-7(6H)-yl)-3-oxopropanenitrile]", "EC50": "1000 to 3000"},
      {"smiles": "CCC(=O)N1CCc2c(nc(-c3ccc(C(F)(F)F)cc3)nc2-c2cn(C)nn2)C1", "note": "[Cpd. No. 91, 1-(4-(1-methyl-1H-1,2,3-triazol-4-yl)-2-(4-(trifluoromethyl)phenyl)-5,8-dihydropyrido[3,4-d]pyrimidin-7(6H)-yl)propan-1-one]", "EC50": "1000 to 3000"},
      {"smiles": "C=CC(=O)N1CCc2c(nc(Cc3ccc(C(F)(F)F)cc3)nc2-c2ccn(C)n2)C1", "note": "[Cpd. No. 45, 1-(4-(1-methyl-1H-pyrazol-3-yl)-2-(4-(trifluoromethyl)benzyl)-5,8-dihydropyrido[3,4-d]pyrimidin-7(6H)-yl)prop-2-en-1-one]", "EC50": "< 1000"},
      {"smiles": "C=CC(=O)N1Cc2nc(-c3ccccc3)nc(-c3ccn(Cc4cccnc4)n3)c2C1", "note": "[Cpd. No. 23, 1-(2-phenyl-4-(1-(pyridin-3-ylmethyl)-1H-pyrazol-3-yl)-5,7-dihydro-6H-pyrrolo[3,4-d]pyrimidin-6-yl)prop-2-en-1-one]", "EC50": "< 1000"},
      {"smiles": "CS(=O)(=O)N1Cc2nc(Cc3ccccc3)nc(-c3ccn(Cc4cccnc4)n3)c2C1", "note": "[Cpd. No. 19, 2-benzyl-6-(methylsulfonyl)-4-(1-(pyridin-3-ylmethyl)-1H-pyrazol-3-yl)-6,7-dihydro-5H-pyrrolo[3,4-d]pyrimidine]", "EC50": "1000 to 3000"},
      {"smiles": "C=CC(=O)NC1CCc2nc(-c3ccccc3)nc(-c3ccn(C)n3)c2C1", "note": "(centres unmarked) [Cpd. No. 2, N-(4-(1-methyl-1H-pyrazol-3-yl)-2-phenyl-5,6,7,8-tetrahydroquinazolin-6-yl)acrylamide]", "EC50": "> 3000"},
      {"smiles": "Cn1ccc(-c2nc(Cc3ccccc3)nc3c2CCN(S(C)(=O)=O)C3)n1", "note": "[Cpd. No. 34, 2-benzyl-4-(1-methyl-1H-pyrazol-3-yl)-7-(methylsulfonyl)-5,6,7,8-tetrahydropyrido[3,4-d]pyrimidine]", "EC50": "> 3000"},
      {"smiles": "CN(C)C/C=C/C(=O)N1CCc2c(nc(-c3ccc(C(F)(F)F)cc3)nc2-c2ccn(C)n2)C1", "note": "[Cpd. No. 83, (E)-4-(dimethylamino)-1-(4-(1-methyl-1H-pyrazol-3-yl)-2-(4-(trifluoromethyl)phenyl)-5,8-dihydropyrido[3,4-d]pyrimidin-7(6H)-yl)but-2-en-1-one]", "EC50": "< 1000"},
      {"smiles": "Cn1ccc(-c2nc(-c3ccc(C(F)(F)F)cc3)nc3c2CCN(C#N)C3)n1", "note": "[Cpd. No. 78, 4-(1-methyl-1H-pyrazol-3-yl)-2-(4-(trifluoromethyl)phenyl)-5,8-dihydropyrido[3,4-d]pyrimidine-7(6H)-carbonitrile]", "EC50": "1000 to 3000"},
      {"smiles": "C=CS(=O)(=O)N1CCc2c(nc(-c3ccc(C(F)(F)F)cc3)nc2-c2ccn(C)n2)C1", "note": "[Cpd. No. 80, 4-(1-methyl-1H-pyrazol-3-yl)-2-(4-(trifluoromethyl)phenyl)-7-(vinylsulfonyl)-5,6,7,8-tetrahydropyrido[3,4-d]pyrimidine]", "EC50": "< 1000"},
      {"smiles": "Cn1ccc(-c2nc(-c3ccccc3)nc3c2CC(NS(C)(=O)=O)CC3)n1", "note": "(centres unmarked) [Cpd. No. 4, N-(4-(1-methyl-1H-pyrazol-3-yl)-2-phenyl-5,6,7,8-tetrahydroquinazolin-6-yl)methanesulfonamide]", "EC50": "> 3000"},
      {"smiles": "Cn1ccc(-c2nc(-c3ccccc3)nc3c2CN(S(C)(=O)=O)C3)n1", "note": "[Cpd. No. 16, 4-(1-methyl-1H-pyrazol-3-yl)-6-(methylsulfonyl)-2-phenyl-6,7-dihydro-5H-pyrrolo[3,4-d]pyrimidine]", "EC50": "> 3000"},
      {"smiles": "C=CC(=O)N1CCc2c(nc(-c3ccccc3)nc2-c2cnn(C)c2)C1", "note": "[Cpd. No. 56]", "EC50": "< 1000"},
      {"smiles": "C=CC(=O)N1CCc2c(nc(Cc3cccc(C(F)(F)F)c3)nc2-c2ccn(Cc3cccnc3)n2)C1", "note": "[Cpd. No. 50, 1-(4-(1-(pyridin-3-ylmethyl)-1H-pyrazol-3-yl)-2-(3-(trifluoromethyl)benzyl)-5,8-dihydropyrido[3,4-d]pyrimidin-7(6H)-yl)prop-2-en-1-one]", "EC50": "< 1000"},
      {"smiles": "CCC(=O)NC1CCc2nc(-c3ccccc3)nc(-c3ccn(Cc4cccnc4)n3)c2C1", "note": "(centres unmarked) [Cpd. No. 10, N-(2-phenyl-4-(1-(pyridin-3-ylmethyl)-1H-pyrazol-3-yl)-5,6,7,8-tetrahydroquinazolin-6-yl)propionamide]", "EC50": "> 3000"},
      {"smiles": "CCC(=O)N1Cc2nc(-c3ccccc3)nc(-c3ccn(C)n3)c2C1", "note": "[Cpd. No. 15, 1-(4-(1-methyl-1H-pyrazol-3-yl)-2-phenyl-5,7-dihydro-6H-pyrrolo[3,4-d]pyrimidin-6-yl)propan-1-one]", "EC50": "> 3000"}
    ]}
  ]
}
